From ChEMBL document CHEMBL1201862, “PubChem BioAssay data set” (2004)
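Cells were grown in 96-well plates and exposed to each compound for 48 hours at five concentrations; endpoints were interpolated linearly between bracketing concentrations, or set to the highest concentration if not reached. The concentration for 50% growth inhibition is given as GI50.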 Calls of active or inactive are those of the source. No stated cut-off is given here; in the data, active = GI50 up to about 1.1 µM and inactive = higher.

Legend:
Experiment in all cases: NCI tumour cell line growth inhibition, 48 h
SW-620 = test system: SW-620
UO-31 = test system: UO-31
CAKI-1 = test system: CAKI-1
NCI-H23 = test system: NCI-H23
K562 = test system: K562
SK-MEL-5 = test system: SK-MEL-5
OVCAR-8 = test system: OVCAR-8
EKVX = test system: EKVX
SNB-75 = test system: SNB-75
OVCAR-4 = test system: OVCAR-4
HCT-15 = test system: HCT-15
TK-10 = test system: TK-10
HCC 2998 = test system: HCC 2998
U-251 = test system: U-251
IGROV-1 = test system: IGROV-1
M14 = test system: M14
CCRF-CEM = test system: CCRF-CEM

| SMILES | GI50 (SW-620) | GI50 (UO-31) | GI50 (CAKI-1) | GI50 (NCI-H23) | GI50 (K562) | GI50 (SK-MEL-5) | GI50 (OVCAR-8) | GI50 (EKVX) | GI50 (SNB-75) | GI50 (OVCAR-4) | GI50 (HCT-15) [µM] | GI50 (TK-10) | GI50 (HCC 2998) | GI50 (U-251) | GI50 (IGROV-1) | GI50 (M14) | GI50 (CCRF-CEM) |
| --- | --- | --- | --- | --- | --- | --- | --- | --- | --- | --- | --- | --- | --- | --- | --- | --- | --- |
| CC1(C)CCC(=O)c2c(O)ccc(O)c21 | 48.4 µM (inactive) | > 100 µM (inactive) | 71.8 µM (inactive) | > 100 µM (inactive) | 26.1 µM (inactive) | > 100 µM (inactive) | 91.8 µM (inactive) | > 100 µM (inactive) | 23.1 µM (inactive) | > 100 µM (inactive) | 83.9 | > 100 µM (inactive) | > 100 µM (inactive) | > 100 µM (inactive) | > 100 µM (inactive) |  |  |
| COc1cc(CC2C(=O)OCC2[C@@H](OC(C)=O)c2ccc3c(c2)OCO3)c(Br)c(OC)c1OC (some centres not stated) | 58.3 µM (inactive) | 53.3 µM (inactive) | > 100 µM (inactive) | 68.9 µM (inactive) |  | 30.9 µM (inactive) | > 100 µM (inactive) | > 100 µM (inactive) | 28.5 µM (inactive) | 90.6 µM (inactive) | 19.1 | > 100 µM (inactive) | 98.4 µM (inactive) |  | 80.2 µM (inactive) | 50.9 µM (inactive) | 44.7 µM (inactive) |
| O=C1OCCC1C(O)C1c2ccccc2-c2ccccc21 (configuration not stated) | > 100 µM (inactive) | > 100 µM (inactive) | > 100 µM (inactive) | > 100 µM (inactive) | > 100 µM (inactive) |  | > 100 µM (inactive) | > 100 µM (inactive) | > 100 µM (inactive) | > 100 µM (inactive) |  | > 100 µM (inactive) |  | > 100 µM (inactive) | > 100 µM (inactive) | > 100 µM (inactive) | > 100 µM (inactive) |
| CCCCCCc1cc2c(C)c(C)c(=O)oc2cc1OCCCOc1cc2oc(=O)c(C)c(C)c2cc1CCCCCC | > 100 µM (inactive) | > 100 µM (inactive) | > 100 µM (inactive) | > 100 µM (inactive) | > 100 µM (inactive) | > 100 µM (inactive) | > 100 µM (inactive) | > 100 µM (inactive) |  |  | > 100 | > 100 µM (inactive) |  | > 100 µM (inactive) | > 100 µM (inactive) | > 100 µM (inactive) | > 100 µM (inactive) |
| N#CC1CCCCC1NC1(C#N)CCCCC1 (configuration not stated) | > 100 µM (inactive) | > 100 µM (inactive) | > 100 µM (inactive) | > 100 µM (inactive) | > 100 µM (inactive) | > 100 µM (inactive) | > 100 µM (inactive) | > 100 µM (inactive) | > 100 µM (inactive) |  | > 100 | > 100 µM (inactive) | > 100 µM (inactive) | > 100 µM (inactive) | > 100 µM (inactive) | > 100 µM (inactive) | > 100 µM (inactive) |
| Cc1ccc(S(=O)(=O)C(C#N)c2nc3ccccc3nc2N2CCOCC2)cc1 (configuration not stated) | 26.9 µM (inactive) | 32.1 µM (inactive) | 25.6 µM (inactive) | 21.8 µM (inactive) | > 10 µM (inactive) | 48.8 µM (inactive) | > 10 µM (inactive) | > 100 µM (inactive) | 22.8 µM (inactive) | 20.5 µM (inactive) | 31 | 56.6 µM (inactive) | 14.1 µM (inactive) | 18.7 µM (inactive) | 13.6 µM (inactive) | 44.2 µM (inactive) | 13.9 µM (inactive) |
| N/N=C(\c1nc2ccc(Cl)cc2nc1O)C(O)c1ccc(Cl)c(Cl)c1 (configuration not stated) | 59.2 µM (inactive) | > 100 µM (inactive) |  | > 100 µM (inactive) | > 100 µM (inactive) | > 100 µM (inactive) | 72.6 µM (inactive) | > 100 µM (inactive) | 31 µM (inactive) | 29.1 µM (inactive) | > 100 | > 100 µM (inactive) | > 100 µM (inactive) | > 100 µM (inactive) | > 100 µM (inactive) | > 100 µM (inactive) | > 100 µM (inactive) |
